{"source": "patent US7074925B1", "about": "“N-substituted derivatives of 5-oxyiminobarbituric acid” (priority 1998, dated 2006)", "key": {"[1]": {"assay": "Antioxidant action, riboflavine chemiluminescence", "assay_type": "biochemical", "settings": "solvent water, phosphate buffer pH 9.1", "source_text": "To assess a general antioxidant activity the method of riboflavine chemiluminescence was used. The test substance was introduced into a system consisted of phosphate buffer (pH 9.1), solution of riboflavine, and solution of bivalent iron sulfate. Chemiluminescence was initiated by 0.1% solution of hydrogen peroxide and registered by means of luminometer. […] Ascorbic acid was used as a reference agent."}, "[2]": {"assay": "Determination of maximal tolerable dose", "assay_type": "in vivo", "settings": "oral administration, mice, observed 72 hours; 300 was the maximally utilized one", "method": "Tested substance was introduced perorally (in dose of 300 mg/kg) through a gastric tube or intraperitoneally (in dose of 100 mg/kg) to no-breed white mice with mass 18-20 g (each tested group consisted of 3 males and 3 females). Then the mouse state was observed during 72 hours. Absence of symptoms characteristic of toxic effects, or absence of animal death during the given time allows to make a conclusion that the toxicity of the test substance is low. If acute toxicity effects are observed, the dose is reduced to find maximal tolerable dose."}, "[3]": {"assay": "Analgesic activity, tail withdrawal from radiant heat", "assay_type": "in vivo, mice", "method": "The time needed to draw back a tail placed under a directed source of radiant heat was estimated in a group of 3 mice. Prolongation of the response time by more than 50% after intraperitoneal dosing a substance (30 mg/kg) indicated analgesic activity. Morphine sulfate (2 mg/kg) was utilized as a reference agent."}, "[4]": {"test_system": "primary culture of human lymphocytes (IFN-α production)", "assay": "Interferon-inducing activity in primary culture of human lymphocytes", "assay_type": "cell-based"}, "[5]": {"test_system": "Human's platelet aggregation", "assay": "Antiaggregational properties, ADP-induced platelet aggregation", "assay_type": "cell-based", "settings": "100 μg/ml, ADP […], platelet-enriched human plasma", "source_text": "Human's platelet aggregation was investigated in plasma of healthy 50±3 years donors that was enriched by thrombocytes, by means of aggregometer FRM-1. […] Magnitude of a maximum non-reversible platelet aggregation in the control samples (solvent) was adopted as 100%, and that in tested samples was counted as the percentage compared to the control."}, "[6]": {"test_system": "C.trachomatis D323", "assay": "Action on Chlamydia trachomatis in cell culture", "assay_type": "cell-based", "settings": "100 mg/l", "method": "The antimicrobial activity of the claimed compounds was studied relative to C.trachomatis […], which is a standard strain from the collection of the chair of microbiology of St. Petersburg State Pavlov Medical University. […] Cell cultures McCoy and L929 obtained from the Institute of Cytology of RAS were used in this work. Cells were grown in flasks made of neutral glass in the medium RPMI-1640 with the addition of 10% of fetal calf serum. The test was performed in glass (non-toxic) flat-bottom flasks with cover glasses. The cells were introduced into the medium in the final concentration of […]. […] Simultaneously, tested compounds in a final concentration of 100 mg/l were added to the cells. The sample was centrifuged at 2400 G during 60 minutes at room temperature and incubated at 37° C. for 2 hours. […] The samples were doubled using the medium without cycloheximide so as to exclude its effect on the investigated compounds. The samples were incubated in a CO2-incubator for 48 hours. […] The effect of the action of substance was determined by analysis of the monolayer state and number of cells with CPI when compared with the control (cell culture infected with C.trachomatis […]); in doing so, the number of unchanged cells, that were counted in 100 visual fields obtained using the special net of the microscope eyepiece, was taken into consideration. […] Control of cell culture: morphology of cells and state of monolayer correspond to the given type of the cells; control of chlamydia growth in the cell culture: presence of CPI in the monolayer; control of action of standard antimicrobial agent: reduction of number of CPI in the monolayer as compared to the previous control; control of toxicity of the claimed compounds: toxicity is absent; control of action of solvents: toxic action on cells is absent."}, "[7]": {"test_system": "Herpes virus of the type I (HSV-I/Leningrad/248/88)", "assay": "Effect on Herpes virus, cytopathogenic action on Vero cells", "assay_type": "cell-based, Herpes Simplex virus", "settings": "compound 100 μg/ml"}, "[8]": {"assay": "Psychostimulating activity, symptom score", "assay_type": "in vivo, mice", "settings": "tested substances perorally 300 mg/kg, one hour after; maximum 30 points, more than 12 significant"}}, "data": [{"smiles": "Cc1ccccc1N1C(=O)C(=NO)C(=O)NC1=S", "note": "[XLII]", "values": [{"measurement": "IC50, suppressing chemiluminescence by 50%", "setting": "[1]", "value": 9.99, "unit": "µg/mL"}, {"measurement": "Maximal tolerable dose, concentration of test substances", "setting": "[2]", "value": 300, "unit": "mg/kg"}, {"measurement": "Latent period of response, before dosing", "setting": "[3]; before intraperitoneal 30 mg/kg", "value": 7.8}, {"measurement": "Latent period of response, 30 minutes after dosing", "setting": "[3]; intraperitoneal 30 mg/kg", "value": 11.3}, {"measurement": "Content of IFN in induction mixture after 24-hour incubation", "setting": "[4]; substance 1 mg/l", "value": "28.0 ± 1.5", "unit": "IU/3 × 10^4 lymph./ml"}, {"measurement": "Content of IFN in induction mixture after 24-hour incubation", "setting": "[4]; substance 10 mg/l", "value": "45 ± 1.2", "unit": "IU/3 × 10^4 lymph./ml"}, {"measurement": "Content of IFN in induction mixture after 24-hour incubation", "setting": "[4]; substance 100 mg/l", "value": "97.5 ± 1.8", "unit": "IU/3 × 10^4 lymph./ml"}, {"measurement": "% of inhibition of platelet aggregation", "setting": "[5]", "value": "35.8 ± 3.2", "unit": "%"}, {"measurement": "percentage of cell protection from infection", "setting": "[6]", "value": "(60%)"}, {"measurement": "Number of unchanged cells", "setting": "[6]; 48 hours, counted in 100 visual fields, cell control 8.000, infected cells 6.000", "value": 7.200}, {"measurement": "Quantity of the unchanged cells (number of cells in 100 visual fields)", "setting": "[7]; Vero cells, 36 hours, cell control 10000", "value": 5000}, {"measurement": "percentage of protection of cells from virus", "setting": "[7]; compared to the control of cell culture", "value": "(50%)"}, {"measurement": "Number of points (psychostimulation)", "setting": "[8]", "value": 15}]}]}
